Experimental data: PubChem BioAssay (NCI)
Values joined by “and” are separate entries in the source; they are usually repeats but may differ in a detail not shown here. Equal entries are not always repeated.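 Cultured in 96-well plates, cells were exposed to test compound for 48 hours across five concentrations. GI50 is the concentration that inhibits growth by half. Definition used: TGI = concentration required for complete inhibition of growth.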 *1 amine or outer side, *2 acyl side, *3 side chain or, on linkers, in order; H or OH if unused. Where a SMILES comes first, the peptide text is derived from it. Bridges are numbered along the chain shown (N, C = ends). Roman numbers before positions name the chains, in order. [ ]: non-standard residue; d: D form. Actinocin(1to9) = Cc1c2oc3c(C)ccc(C(=O)[*:2])c3nc-2c(C(=O)[*:1])c(N)c1=O; NMeV = CN[CH](C(=O)O)C(C)C; Sar = CNCC(=O)O

Tests used:
Assay in all cases: NCI anticancer screen, dose series, 48 h
M14 melanoma = test system: M14 melanoma
CAKI-1 renal = test system: CAKI-1 renal
NCI-H226 lung = test system: NCI-H226 lung
ACHN renal = test system: ACHN renal
IGROV1 ovarian = test system: IGROV1 ovarian
A549 NSCLC = test system: A549 NSCLC
HCT-15 colon = test system: HCT-15 colon

SMILES | TGI (M14 melanoma) [µM] | TGI (CAKI-1 renal) [µM] | TGI (NCI-H226 lung) | TGI (ACHN renal) | TGI (IGROV1 ovarian) [µM] | TGI (A549 NSCLC) [µM] | TGI (HCT-15 colon) [µM] | GI50 (NCI-H226 lung) [µM]
CN(C)/C=N/c1cc(=O)n(C)c(=O)n1C | > 100 | > 100 | > 100 µM | > 100 µM | > 100 | > 100 | > 100 | 
COC(=O)c1ccccc1/C=C1\Cc2ccc3c(c2C1=O)CCC3 |  | > 100 | > 100 µM | > 100 µM | > 100 | > 100 | > 100 | 
O=c1c2ccccc2nc(-c2ccccc2)n1/N=C/c1ccccc1[N+](=O)[O-] | > 100 | > 100 | > 100 µM | > 100 µM | > 100 | > 100 | > 100 | 
COC(=O)C1=C(C)NC(CF)=C(C(=O)OC)C1c1cccc2c(=O)c3ccccc3oc12 (stereo unspecified) |  | 62.3 | > 100 µM | > 100 µM | 18.9 | > 100 | > 100 | 
CC(=O)Nn1c(Cc2ccc(Cl)cc2)nn(C)c1=O | > 100 | > 100 | > 100 µM | > 100 µM | > 100 | > 100 | > 100 | 
C[C@H]1[C@H]2[C@H](C[C@@]3(C)C4=CC[C@H]5C(C)(C)[C@@H](OC6OCC(O)C(O)C6O)CC[C@@]56C[C@@]46CC[C@]23C)O[C@@]2(O)[C@@H]1OC(C)(C)[C@H]2O (stereo partly specified) | 10.7 | 5.57 | 6.73 µM | 6.35 µM | 1.85 | 5.5 | 3.43 | 
CN1CC=C(C#CC(C)(C)O)CC1 | > 37.5 | > 37.5 | > 37.5 µM | > 37.5 µM | > 37.5 | > 37.5 | > 37.5 | 
CSc1ccccc1NC1=NCCO1 | > 100 | > 100 | > 100 µM | > 100 µM | > 100 | > 100 | > 100 | 
O=C(Cn1c2ccc(Br)cc2c2nc3ccccc3nc21)NNC(=O)NC1CCCCC1 | > 100 | > 100 |  | > 100 µM |  | 41.7 |  | 
CC(/C=C/c1ccccc1)=N\NC(=S)N/N=C(C)/C=C/c1ccccc1 | > 100 |  | 63.1 µM | > 100 µM | > 100 | > 100 | > 100 | 
Cc1ccc(S(=O)(=O)NC(=O)NC(CCCCN)C(=O)O)cc1 (stereo unspecified) | > 100 |  |  | > 100 µM | > 100 | > 100 | > 100 | 
CN(C)CCNc1ncnc2nc(-c3ccccc3)c(-c3ccccc3)nc12 | > 100 | > 100 | > 100 µM |  | > 100 | > 100 |  | 
O=S(=O)(Cc1ccccc1)c1nnc(S(=O)(=O)c2ccc(Cl)cc2)s1 | 33.7 | 54 |  | 36.4 µM |  | 68.1 | 39.8 | 
CC1CCC2C(C)C(OC(=O)CCC(=O)O)OC3OC4(C)CCC1C32OO4 (stereo unspecified) | > 100 | > 100 |  | 18.3 µM | 23.1 | 29.9 | > 100 | 
CNc1ccc(C)cc1S(=O)(=O)c1ccccc1[N+](=O)[O-] | > 100 |  | > 100 µM | > 100 µM | > 100 | > 100 | > 100 | 
CCN(CC)CCC(=O)c1ccc(Cl)c(Cl)c1 | > 100 |  | > 100 µM | > 100 µM | > 100 | > 100 | > 100 | 
O=c1nc(N2CCCCC2)sc2[nH]c3ccccc3c12 | > 100 | > 100 |  | > 100 µM | > 100 | > 100 | > 100 | 
CC(C)(C)OC(=O)NC(Cc1ccc(OC(C)(C)C)cc1)C(=O)N[C@H]1CC[C@H](C(=O)O)C1 (stereo partly specified) | > 100 |  | > 100 µM | > 100 µM | > 100 | > 100 | > 100 | 
COC(=O)NCCc1[nH]nc2c1C(=O)C=C(Nc1ccccc1OC)C2=O | 62.9 | 94.6 |  | > 100 µM | 65.3 | > 100 | > 100 | 
O=C(c1ccc(Cl)c(Cl)c1)N(C(=S)OC12CC3CC(CC(C3)C1)C2)c1ccccc1 | 48.3 | > 100 | > 100 µM | > 100 µM |  | > 100 | > 100 | 
COc1ccc(CC2NC(=O)C(NC(=O)c3c4nc5c(C(=O)NC6C(=O)NC(Cc7ccc(OC)cc7)C(=O)N7CCCC7C(=O)N(C)CC(=O)N(C)C(C(C)C)C(=O)OC6C)ccc(C)c5oc-4c(C)c(=O)c3N)C(C)OC(=O)C(C(C)C)N(C)C(=O)CN(C)C(=O)C3CCCN3C2=O)cc1 (stereo unspecified) (I: TY(Me)P[Sar][NMeV] / II: TY(Me)P[Sar][NMeV]; ester I:1-I:C, II:1-II:C; linker I:N-II:N via Actinocin(1to9); configuration not given here) | 0.135 | 0.306 | 0.0228 µM and 0.0527 µM | 1.66 µM and 1.55 µM |  |  |  | < 0.001
